Several values for one entry are separate records, joined by “and”; a condition that tells them apart may be missing. Identical values can stand only once.
B1: prolactin: additional agent given in combination with LH or hCG (protein, UniProt P01236 29-227, looked up)
Prolactin: LPICPGGAARCQVTLRDLFDRAVVLSHYIHNLSSEMFSEFDKRYTHGRGFITKAINSCHTSSLATPEDKEQAQQMNQKDFLSLIVSILRSWNEPLYHLVTEVRGMQEAPEAILSKAVEIEEQTKRLLEGMELIVSQVHPETKENEIYPVWSGLPSLQMADEESRLSAYYNLLHCLRRDSHKIDNYLKLLKCRIIHNNNC

What was measured:
neural stem cells = assay: Neural stem cell culture: secondary sphere formation from dissociated primary spheres (self-renewal); format: cell-based, mice; conditions: for number of secondary spheres: EGF or EGF plus LH (30 nM), limited density, Exp. #1-#3
Experimental: Generation and differentiation of spheres from embryonic and adult forebrain were performed as described previously with minor modifications (Reynolds and Weiss, 1992; Reynolds et al., 1992). Briefly, striato-pallidum complexes were removed from mouse embryos at E14 and collected into PBS containing 0.6% glucose, penicillin (50 U/ml), and streptomycin (50 U/ml; both from Life Technologies, Gaithersburg, Md.) and then transferred into the standard culture medium composed of DMEM-F-12 (1:1), glucose (0.6%), glutamine (2 mM), sodium bicarbonate (3 mM), HEPES buffer (5 mM), insulin (25 μg/ml), transferrin (100 μg/ml), progesterone ([…]), putrescine (60 μM), and selenium chloride (30 nM) (all from Sigma, St. Louis, Mo., except glutamine from Life Technologies) For adult neural stem cell cultures, medial and lateral portions of the lateral ventricle subependyma from the adult brain were dissected from both hemispheres, pooled together, subsequently cut into 1 mm^2 fragments, and transferred into the standard culture medium containing 1.33 mg/ml trypsin, 0:67 mg/ml hyaluronidase, and 0.2 mg/ml kynurenic acid (all from Sigma). After 30 min at 37° C., the tissue was transferred to the standard culture medium containing 0.7 mg/ml trypsin inhibitor (Roche Diagnostics, Laval, Quebec, Canada). Tissue pieces were mechanically dissociated with micropipettes. Cells were seeded at various densities into the standard culture medium, which also contained EGF (20 ng/ml human recombinant; Peprotech, Rocky Hill, N.J.). Cells were cultured for 7 days in vitro (DIV) and formed floating cell clusters (spheres). All the mice for culture experiments were killed by cervical dislocation.

[1] = system: neural stem cells in the SVZ; assay: Infusion into the lateral ventricle by osmotic pump; BrdU positive (proliferating) cells counted in the SVZ; format: in vivo, mice; conditions: infusion of combination of LH and prolactin or hCG and prolactin vs LH or hCG; Example 5
Experimental: To examine the number of progenitor cells in the SVZ after treatment, bromodeoxyuridine (BrdU) injections were used to label these cells. Animals received BrdU injections (120 mg/kg, i.p., dissolved in 0.007% NaOH in phosphate buffer) every 2 hours for a 10 hour period.
The sections were post-fixed with acetone for 30 seconds at room temperature and washed with PBS. For BrdU staining, the tissue was treated with 1M HCl for 22 minutes at 60° C. to denature cellular DNA. Sections were then incubated for 24 hours at room temperature in primary antibody (rat anti-BrdU, 1:50) diluted in 0.3% PBS-T containing 10% NGS, washed with PBS, and then incubated with goat-anti-rat secondary antibodies conjugated to biotin (1:200) for 1 hour at room temperature. After rinsing with ddH2O, sections were mounted with Fluorosave, because staining was visualized with CY3-Streptavodin, and viewed with a Zeiss Axiophot fluorescence microscope.
A one-in-ten series of coronal sections (14 μm) from the rostral tip of the lateral ventricle to caudal most aspect of the ventricles (total 10 sections) were collected. BrdU-positive cells were then counted in the defining ependymal-subependymal layer.
Sixteen 8-week-old CD-1 mice (Charles-River, Laval, Quebec, Canada) were anesthetized with sodium pentobarbital (120 mg/kg, i.p.) and implanted with osmotic pumps (Alzet 1007D; Alza, Palo Alto, Calif.). […]

| Molecule | number of secondary spheres (neural stem cells; neural stem cells isolated from female mice) | number of secondary spheres (neural stem cells; neural stem cells isolated from male mice) | proliferation in the SVZ, prolactin added to LH or hCG [1] | self-renewal (the number of secondary spheres from primary spheres) (neural stem cells; prolactin added with LH or hCG in neural stem cell cultures, Example 5) |
| --- | --- | --- | --- | --- |
| EGF: EGF, 20 ng/ml human recombinant; Peprotech; comparator culture condition | 172.3 and 157.6 and 197.9 | 144.4 and 225.1 and 168.2 | – | – |
| B1 | – | – | further enhances the effects of LH or hCG | enhanced |
